Laboratory results published in US20260042764A1, “COMPOSITIONS AND METHODS FOR INHIBITION OF KRAS” (TheRas, Inc., priority 2022, published 2026).

Assays:
GP2d cells (KRAS G12D) = test: Cell-based pERK HTRF assay in GP2d cell (Biological Example 2); conditions: GP2d, GP2d (KRAS G12D) cells
Summary of the method: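 HTRF read-out of pERK (excitation 320 nm, emission 615 nm) after lysates sat 4–24 h at room temperature with Eu cryptate and d2 antibodies.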

[1] = target: T1, Avi-KRAS G12D (2-169) GTP/RAF1 RBD-3xFLAG (51-131) (Homo sapiens, UniProt P01116, G12D); test: Raf1-KRAS G12D-GTP disruption HTRF assay (Biological Example 3); format: binding; conditions: KRAS G12D, GTP-loaded
T1 construct: Avi-KRAS G12D (2-169)
Procedure: (§1) Biological Example 3: Disrupting RAS-Effector Binding HTRF Assay
(§2) A protein:protein interaction (PPI) Homogeneous Time Resolved Fluorescence (HTRF) assay was used to determine the effectiveness of compounds in disrupting KRAS protein and effector (RAF1) binding.
(§3) The HTRF assay used the following reagents and proteins: (i) 50 nM Avi-KRAS G12D (2-169) GTP/RAF1 RBD-3xFLAG (51-131): (ii) 50 nM Avi-KRAS G12C (2-169) GTP/RAF1 RBD-3xFLAG (51-131): (iii) 50 nM Avi-KRAS G12V (2-169) GTP/RAF1 RBD-3xFLAG (51-131); (iv) 50 nM Avi-KRAS WT (2-169) GTP/RAF1 RBD-3xFLAG (51-131); and (v) 75 nM 3xFLAG-RAF1 RBD (51-131)-Avi. The assay buffer included: 50 mM Tris pH 7.5 (Invitrogen, 15567-027), 100 mM NaCl (Sigma, S5150-IL), 5 mM MgCl2 (Sigma, 63069), 0.1% BSA (Sigma, A7030), 0.01% Tween 20 (Sigma, P7949), 10% DMSO (Cell Signaling, 12611). The bead buffer included: 50 mM Tris pH 7.5 (Invitrogen, 15567-027), 0.01% Tween 20 (Sigma, P7949). An assay volume of 20 μL was used in a 384 well plate-low volume format. Compound titration: 30-0.005 μM, 3x dilution series.
(§4) The HTRF assay employed the following protocol:
(§5) Compounds were dispensed in assay plate (384-well, Grenier Bio-One #784075) using Echo (model 555) with dose response settings: 200 nL final volume, titration from 30 μM as a 10-point dilution series. Proteins and HTRF reagents were mixed and dispensed onto plates, 20 μL per well, and then incubated for 1 h at room temperature, with 700 rpm shaking.
(§6) Plates were analyzed on an Envision plate reader using the following setting: Excitation 320 nm, Bandwidth 75 nm; Emission 615 nm, Bandwidth 85 nm; Gain 100%; Flashes 100; Lag 60 μs. Data was reported as percentage of activity, with DMSO as 100%. Data was plotted and analyzed using Prism 8.
(§7) The biochemical Raf1-KRAS G12D/G12V/G12C/WT-GTP disruption assay IC50 of selected compounds described herein are shown in Table 12.

[2] = target: T2, Avi-KRAS G12C (2-169) GTP/RAF1 RBD-3xFLAG (51-131) (Homo sapiens, UniProt P01116, G12C); test: Raf1-KRAS G12C-GTP disruption HTRF assay (Biological Example 3); format: binding; conditions: KRAS G12C, GTP-loaded
T2 construct: Avi-KRAS G12C (2-169)
Procedure: as §1, §2, §3, §4, §5, §6, §7

[3] = target: T3, Avi-KRAS G12V (2-169) GTP/RAF1 RBD-3xFLAG (51-131) (Homo sapiens, UniProt P01116, G12V); test: Raf1-KRAS G12V-GTP disruption HTRF assay (Biological Example 3); format: binding; conditions: KRAS G12V, GTP-loaded
T3 construct: Avi-KRAS G12V (2-169)
Procedure: as §1, §2, §3, §4, §5, §6, §7

[4] = target: T4, Avi-KRAS WT (2-169) GTP/RAF1 RBD-3xFLAG (51-131) (Homo sapiens, UniProt P01116); test: Raf1-KRAS WT-GTP disruption HTRF assay (Biological Example 3); format: binding; conditions: KRAS WT, GTP-loaded
T4 construct: Avi-KRAS WT (2-169)
Procedure: as §1, §2, §3, §4, §5, §6, §7

SW620 cells (KRAS G12V) = test: Cell-based pERK HTRF assay in SW620 cell (Biological Example 4); conditions: Homo sapiens, SW-620, SW620 (KRAS G12V) cells
Summary of the method: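 SW620 seeded in RPMI/10% FBS, next day dosed 4 h (top 1 μM, half-log, 9 pts, 0.25% DMSO). Lysed, pERK by d2/Eu cryptate HTRF, 4–24 h RT, 615 nm read.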

T4 sequence (P01116 2-169 isoform P01116-2): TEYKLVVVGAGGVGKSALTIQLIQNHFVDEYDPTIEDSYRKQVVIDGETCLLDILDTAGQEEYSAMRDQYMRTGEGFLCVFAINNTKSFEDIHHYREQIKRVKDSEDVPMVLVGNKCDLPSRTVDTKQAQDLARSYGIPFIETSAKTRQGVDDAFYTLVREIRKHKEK
T2 sequence (P01116 2-169 isoform P01116-2 G12C): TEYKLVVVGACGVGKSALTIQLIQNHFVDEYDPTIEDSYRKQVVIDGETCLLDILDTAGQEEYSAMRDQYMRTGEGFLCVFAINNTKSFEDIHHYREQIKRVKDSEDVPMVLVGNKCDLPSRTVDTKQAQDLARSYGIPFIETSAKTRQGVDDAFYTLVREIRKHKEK
T1 sequence (P01116 2-169 isoform P01116-2 G12D): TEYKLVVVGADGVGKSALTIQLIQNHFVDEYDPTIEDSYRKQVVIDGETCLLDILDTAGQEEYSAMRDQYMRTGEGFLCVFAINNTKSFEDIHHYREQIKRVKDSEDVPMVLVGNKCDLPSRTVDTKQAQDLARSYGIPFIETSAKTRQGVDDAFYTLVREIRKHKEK
T3 sequence (P01116 2-169 isoform P01116-2 G12V): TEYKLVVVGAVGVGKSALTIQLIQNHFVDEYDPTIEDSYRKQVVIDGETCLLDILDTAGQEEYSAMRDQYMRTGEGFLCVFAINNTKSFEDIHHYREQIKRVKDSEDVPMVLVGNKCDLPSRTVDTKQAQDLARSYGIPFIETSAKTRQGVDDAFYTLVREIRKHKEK

## CCN(c1nc(OC[C@@]23CCCN2C[C@H](F)C3)nc2c(F)c(-c3ccc(F)c4sc(N)c(C#N)c34)c(C(F)(F)F)cc12)[C@H]1CC[C@H](C(=O)N(C)C)C1 (atropisomer, axis not shown) [Compound 660]
GP2d cells (KRAS G12D)
  IC50: < 0.1 µM
[1]
  IC50: 0.1 to 1 µM
[2]
  IC50: 1 to 10 µM
[3]
  IC50: 1 to 10 µM
[4]
  IC50: 0.1 to 1 µM
SW620 cells (KRAS G12V)
  IC50: < 0.1 µM

## CCN(c1nc(OC[C@@]23CCCN2C[C@H](F)C3)nc2c(F)c(-c3ccc(F)c4sc(N)c(C#N)c34)c(C(F)(F)F)cc12)[C@H]1CC[C@@H](C(=O)N(C)C)C1 (atropisomer, axis not shown) [Compound 661]
GP2d cells (KRAS G12D)
  IC50: < 0.1 µM
[1]
  IC50: 0.1 to 1 µM
[2]
  IC50: 1 to 10 µM
[3]
  IC50: 1 to 10 µM
[4]
  IC50: 0.1 to 1 µM
SW620 cells (KRAS G12V)
  IC50: < 0.1 µM

## CCN(c1nc(OC[C@@]23CCCN2C[C@H](F)C3)nc2c(F)c(-c3ccc(F)c4sc(N)c(C#N)c34)c(C(F)(F)F)cc12)[C@H]1C[C@@H]2CCCC(=O)N2C1 (atropisomer, axis not shown) [Compound 663]
GP2d cells (KRAS G12D)
  IC50: < 0.1 µM
[1]
  IC50: 0.1 to 1 µM
[2]
  IC50: 1 to 10 µM
[3]
  IC50: 1 to 10 µM
[4]
  IC50: 1 to 10 µM
SW620 cells (KRAS G12V)
  IC50: < 0.1 µM

## CCN(c1nc(OC[C@@]23CCCN2C[C@H](F)C3)nc2c(F)c(-c3ccc(F)c4sc(N)c(C#N)c34)c(C(F)(F)F)cc12)[C@H]1C[C@@H]2CCN(C)C(=O)N2C1 (atropisomer, axis not shown) [Compound 667]
GP2d cells (KRAS G12D)
  IC50: < 0.1 µM
[1]
  IC50: 0.1 to 1 µM
[2]
  IC50: 0.1 to 1 µM
[3]
  IC50: 0.1 to 1 µM
[4]
  IC50: 0.1 to 1 µM
SW620 cells (KRAS G12V)
  IC50: < 0.1 µM

## CCN(c1nc(OC[C@@]23CCCN2C[C@H](F)C3)nc2c(F)c(-c3ccc(F)c4sc(N)c(C#N)c34)c(C(F)(F)F)cc12)[C@H]1CCN(C(=O)O[C@@H]2CCCOC2)C1 (atropisomer, axis not shown) [Compound 796]
GP2d cells (KRAS G12D)
  IC50: < 0.1 µM
[1]
  IC50: 0.1 to 1 µM
[2]
  IC50: 0.1 to 1 µM
[3]
  IC50: 0.1 to 1 µM
[4]
  IC50: 0.1 to 1 µM
SW620 cells (KRAS G12V)
  IC50: < 0.1 µM

## CCN(c1nc(OC[C@@]23CCCN2C[C@H](F)C3)nc2c(F)c(-c3ccc(F)c4sc(N)c(C#N)c34)c(C(F)(F)F)cc12)[C@H]1CCN(C(=O)O[C@H]2CO[C@H]3OCC[C@H]32)C1 (atropisomer, axis not shown) [Compound 816]
GP2d cells (KRAS G12D)
  IC50: < 0.1 µM
[1]
  IC50: 0.1 to 1 µM
[2]
  IC50: ≤ 0.1 µM
[3]
  IC50: 0.1 to 1 µM
[4]
  IC50: 0.1 to 1 µM
SW620 cells (KRAS G12V)
  IC50: < 0.1 µM

## CCN(c1nc(OC[C@@]23CCCN2C[C@H](F)C3)nc2c(F)c(-c3ccc(F)c4sc(N)c(C#N)c34)c(C(F)(F)F)cc12)[C@H]1CCN(C(=O)N2CC(F)C2)[C@H]1C (atropisomer, axis not shown) [Compound 818]
GP2d cells (KRAS G12D)
  IC50: < 0.1 µM
[1]
  IC50: 1 to 10 µM
[2]
  IC50: 1 to 10 µM
[3]
  IC50: 1 to 10 µM
[4]
  IC50: 1 to 10 µM
SW620 cells (KRAS G12V)
  IC50: < 0.1 µM
